Results published in patent US20050182119A1, “Substituted pyrazoline derivatives” (priority 2004, published 2005).

Legend:
[1] = tested on: NC59 human colon tumor cell line; experiment: XTT cell viability (antitumoral activity), NC59; format: cell-based; conditions: incubation time (4 h or 60 h) not stated, read-out: CI50 (μM) colon NC59
Description: (§1) The antitumor activity of inventive compounds was evaluated measuring cell metabolic capacity (viability), using the XTT kit and following the recommendations of the manufacturer (Roche Diagnostics). The assays were carried out a minimum of five times, with controls containing unexposed cells, cells with vehicle, or media plus compound. Cells were seeded into 96-well plates in 100 μl of media and incubated for 24 h. Afterwards, the inventive compounds were added at different combination of concentrations (from 1 μM to 80 μM) for 4 h (short time XTT) or 60 h (long time XTT). At the end of the incubation period, 50 μl of a mixture containing XTT and electron coupling reagent to each well were added. After 4 h of incubation at 37° C. the absorbance at 490 nm was noted. The growth inhibitory activity of each compound, was obtained subtracting the absorbance of the blanks and expressed as percentage of cell growth inhibition, as compared with untreated controls. The inhibitory concentration 50 (IC50) was determined from the dose-response curves of compound concentration versus percentage of cell viability with the Hill sigmoidal equation (three parameters), using Sigmaplot 5.0 software.

[2] = tested on: HCA7 human colon tumor cell line; experiment: XTT cell viability (antitumoral activity), HCA7; format: cell-based; conditions: HCA-7, incubation time (4 h or 60 h) not stated, read-out: CI50 (μM) colon HCA7
Description: as §1

[3] = tested on: HT29 human colon tumor cell line; experiment: XTT cell viability (antitumoral activity), HT29; format: cell-based; conditions: HT-29, incubation time (4 h or 60 h) not stated, read-out: CI50 (μM) colon HT29
Description: as §1

[4] = tested on: PC3 human prostata tumor cell line; experiment: XTT cell viability (antitumoral activity), PC3; format: cell-based; conditions: incubation time (4 h or 60 h) not stated, read-out: CI50 (μM) prostata PC3
Description: as §1

[5] = molecular target: T1, COX-2 (Homo sapiens, UniProt P35354); experiment: Inhibition of enzyme COX-2; format: biochemical
T1 sequence (P35354 18-604): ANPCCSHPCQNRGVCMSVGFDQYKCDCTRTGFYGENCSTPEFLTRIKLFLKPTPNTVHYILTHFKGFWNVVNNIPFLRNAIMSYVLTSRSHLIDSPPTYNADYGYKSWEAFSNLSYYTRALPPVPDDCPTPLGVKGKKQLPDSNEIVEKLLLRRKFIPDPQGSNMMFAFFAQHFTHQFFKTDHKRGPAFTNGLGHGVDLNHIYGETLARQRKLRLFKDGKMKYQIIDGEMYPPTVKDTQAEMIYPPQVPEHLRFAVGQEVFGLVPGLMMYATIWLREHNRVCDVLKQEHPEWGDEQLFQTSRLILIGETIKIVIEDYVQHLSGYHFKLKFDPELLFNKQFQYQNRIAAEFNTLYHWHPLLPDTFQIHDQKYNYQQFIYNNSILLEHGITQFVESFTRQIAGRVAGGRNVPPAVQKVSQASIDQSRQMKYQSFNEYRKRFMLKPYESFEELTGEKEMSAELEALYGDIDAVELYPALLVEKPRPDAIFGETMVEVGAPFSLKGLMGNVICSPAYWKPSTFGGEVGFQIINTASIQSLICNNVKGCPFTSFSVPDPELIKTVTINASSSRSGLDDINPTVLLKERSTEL

[6] = molecular target: COX-1 (Homo sapiens, UniProt P23219); experiment: Inhibition of enzyme COX-1; format: biochemical
COX-1, sequence (P23219 24-599): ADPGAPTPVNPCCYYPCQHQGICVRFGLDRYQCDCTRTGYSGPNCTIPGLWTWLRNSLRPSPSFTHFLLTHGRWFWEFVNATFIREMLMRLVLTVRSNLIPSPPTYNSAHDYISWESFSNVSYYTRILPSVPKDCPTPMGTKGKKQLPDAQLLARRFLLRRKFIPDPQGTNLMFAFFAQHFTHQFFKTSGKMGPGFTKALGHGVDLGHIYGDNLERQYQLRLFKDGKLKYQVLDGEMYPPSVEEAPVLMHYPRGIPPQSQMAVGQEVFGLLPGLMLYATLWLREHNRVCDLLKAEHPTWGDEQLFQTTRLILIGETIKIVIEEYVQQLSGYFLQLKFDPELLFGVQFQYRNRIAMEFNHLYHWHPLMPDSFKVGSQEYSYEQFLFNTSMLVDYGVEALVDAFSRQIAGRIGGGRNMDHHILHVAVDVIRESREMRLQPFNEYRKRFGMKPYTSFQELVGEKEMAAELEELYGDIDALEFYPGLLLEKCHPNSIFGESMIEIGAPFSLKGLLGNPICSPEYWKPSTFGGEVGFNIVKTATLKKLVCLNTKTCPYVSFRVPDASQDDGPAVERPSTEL

| IC50 [1] [µM] | IC50 [2] [µM] | IC50 [3] [µM] | IC50 [4] [µM] | melting point [°C] | inhibiting activity of enzyme COX-2 [5] | inhibiting activity of enzyme COX-1 [6] | Structure (SMILES) |
| --- | --- | --- | --- | --- | --- | --- | --- |
| 18.2 | 26.5 | 21.5 | 30.6 | – | – | – | Cc1ccc(-c2cc(C(F)(F)F)nn2-c2ccc(S(N)(=O)=O)cc2)cc1 [Celecoxib, reference compound] |
| 16.3 | 10.5 | 14.9 | 12.3 | 200 to 202 | do not display any inhibiting activity | do not display any inhibiting activity | Cc1ccc(C)c(C2CC(C(F)(F)F)=NN2c2ccc(S(N)(=O)=O)cc2)c1 (stereo not drawn) [Example 1, 4-[5-(2,5-dimethyl-phenyl)-3-trifluoromethyl-4,5-dihydro-pyrazol-1-yl]-benzenesulfonamide] |
| – | – | – | 10.6 | 195 to 197 | do not display any inhibiting activity | do not display any inhibiting activity | NS(=O)(=O)c1ccc(N2N=C(C(F)(F)F)CC2c2cc(C(F)(F)F)cc(C(F)(F)F)c2)cc1 (stereo not drawn) [Example 2, 4-[5-(3,5-bis-trifluoromethyl-phenyl)-3-trifluoromethyl-4,5-dihydro-pyrazol-1-yl]-benzenesulfonamide] |
